Experiments:
[1] = Solubility of calcifediol monohydrate; type: physicochemical
Text: In one embodiment, calcifediol is synthetically manufactured as calcifediol monohydrate. […] Chemically, calcifediol monohydrate is (3β,5Z,7E)-9,10-secocholesta-5,7,10(19)-triene-3,25-diol monohydrate and its structural formula is: […]

plasma proteins = test: Plasma protein binding of calcifediol; type: in vitro ADME; conditions: human, read-out: bound to plasma proteins
Description: The pharmacokinetics of […] were assessed in healthy subjects and subjects with CKD Stage 3 or Stage 4. […] Steady-state levels of serum total 25-hydroxyvitamin D were reached after approximately 3 months. Following multiple dose administration of […], the average steady state concentrations of serum total 25-hydroxyvitamin D were 53 ng/mL and 68 ng/mL for doses of 30 mcg and 60 mcg dose group, respectively. With respect to distribution, calcifediol is extensively bound to plasma proteins (>98%). The mean apparent volume of distribution was 8.8 L in healthy subjects following a single oral dose of […], and 30.1 L in subjects with Stage 3 or Stage 4 chronic kidney disease following repeated dosing. With respect to elimination, the mean elimination half-life of calcifediol was approximately 11 days in healthy individuals following a single dose of […], and approximately 25 days in patients with Stage 3 or Stage 4 chronic kidney disease following repeated once daily dosing. With respect to metabolism, production of calcitriol from calcifediol is catalyzed by the 1α-hydroxylase enzyme, CYP27B1, located in the kidney, parathyroid gland, and other tissues. […] Calcitriol suppresses CYP27B1 and upregulates CYP24A1. Excretion of calcifediol occurs primarily through the biliary fecal route. […]

Row | SMILES | solubility in alcohol and fatty oils [1] | solubility in water [1] | fraction unbound (plasma proteins)
1 | C=C1CC[C@H](O)C/C1=C/C=C1\CCC[C@]2(C)[C@@H]([C@H](C)CCCC(C)(C)O)CC[C@@H]12 [Calcifediol monohydrate, (3β,5Z,7E)-9,10-secocholesta-5,7,10(19)-triene-3,25-diol monohydrate] | soluble | practically insoluble | –
2 | C=C1CC[C@H](O)C/C1=C/C=C1\CCC[C@]2(C)[C@@H]([C@H](C)CCCC(C)(C)O)CC[C@@H]12 [calcifediol, 25-hydroxyvitamin D3] | – | – | < 0.02
